Test results from ChEMBL document CHEMBL1131172 (J Med Chem, 1998).

Legend:
Assay type in all cases: functional
KM12 = experiment: inhibition of the growth of colon cancer(KM-12) cell line. value in parentheses is percent inhibition at 0.01 uM; conditions: Homo sapiens
NCI-H460 [1] = experiment: Inhibition of the growth of non-small-cell lung cancer (NCI-H460) cell line at 0.01 uM; conditions: Homo sapiens
RPMI-8226 [2] = experiment: inhibition of the growth of leukemia (RPMI-8226) cell line; conditions: Homo sapiens
UO-31 [3] = experiment: Inhibition of the growth of renal cancer(UO-31) cell line at 0.01 uM; conditions: Homo sapiens
IGROV-1 [4] = experiment: inhibition of the growth of ovarian cancer(IGROVI) cell line; conditions: Homo sapiens
786-0 [5] = experiment: inhibition of the growth of renal cancer(786-0) cell line; conditions: Homo sapiens
SNB-19 [6] = experiment: inhibition of the growth of CNS cancer(SNB-19) cell line; conditions: Homo sapiens
HCT-15 [7] = experiment: inhibition of the growth of colon cancer(HCT-15) cell line; conditions: Homo sapiens
MDA-N [8] = experiment: inhibition of the growth of breast cancer(MDA-N) cell line; conditions: Homo sapiens
HCT-116 [9] = experiment: Inhibition of the growth of colon cancer(HCT116) cell line at 0.01 uM; conditions: Homo sapiens
MDA-MB-435 [10] = experiment: Inhibition of the growth of breast cancer (MDA-MB-435) cell line; conditions: Homo sapiens
M14 [11] = experiment: inhibition of the growth of melanoma cancer (M14) cell line; conditions: Homo sapiens
NCI-H23 [12] = experiment: inhibition of the growth of non-small-cell lung cancer (NCI-H23) cell line; conditions: Homo sapiens
UO-31 [13] = experiment: inhibition of the growth of renal cancer(UO-31) cell line; conditions: Homo sapiens
NCI-H322M [14] = experiment: inhibition of the growth of non-small-cell lung cancer (NCI-H322M) cell line; conditions: Homo sapiens
SK-MEL-5 [15] = experiment: inhibition of the growth of melanoma cancer (SK-MEL-5) cell line; conditions: Homo sapiens
M14 [16] = experiment: Inhibition of the growth of melanoma cancer (M14) cell line at 0.01 uM; conditions: Homo sapiens
SF-295 [17] = experiment: Inhibition of the growth of CNS cancer(SF-295) cell line at 0.01 uM; conditions: Homo sapiens
SF-268 [18] = experiment: Inhibition of the growth of CNS cancer(SF-268) cell line at 0.01 uM; conditions: Homo sapiens
A549 [19] = experiment: inhibition of the growth of non-small-cell lung cancer (A549/ATCC) cell line; conditions: Homo sapiens
DU-145 [20] = experiment: inhibition of the growth of prostate cancer(DU-145) cell line; conditions: Homo sapiens
SNB-19 [21] = experiment: Inhibition of the growth of CNS cancer(SNB-19) cell line at 0.01 uM; conditions: Homo sapiens
NCI-H23 [22] = experiment: Inhibition of the growth of non-small-cell lung cancer (NCI-H23) cell line at 0.01 uM; conditions: Homo sapiens
Dihydrofolate reductase = biological target: T1, Dihydrofolate reductase (Rattus norvegicus, UniProt Q920D2); experiment: Inhibitory activity against dihydrofolate reductase(DHFR) from rat liver
T1 sequence (Q920D2 whole entry): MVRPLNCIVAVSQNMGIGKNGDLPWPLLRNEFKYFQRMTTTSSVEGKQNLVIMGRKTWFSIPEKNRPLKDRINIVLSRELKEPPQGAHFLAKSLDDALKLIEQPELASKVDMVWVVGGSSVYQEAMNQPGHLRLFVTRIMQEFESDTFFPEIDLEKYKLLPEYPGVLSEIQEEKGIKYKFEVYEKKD

MDA-N [23] = experiment: Inhibition of the growth of breast cancer(MDA-N) cell line at 0.01 uM; conditions: Homo sapiens
OVCAR-8 [24] = experiment: inhibition of the growth of ovarian cancer(OVCAR-8) cell line; conditions: Homo sapiens
RPMI-8226 [25] = experiment: Inhibition of the growth of leukemia (RPMI-8226) cell line at 0.01 uM; conditions: Homo sapiens
NCI-H322M [26] = experiment: Inhibition of the growth of non-small-cell lung cancer (NCI-H322M) cell line at 0.01 uM; conditions: Homo sapiens
CAKI-1 [27] = experiment: inhibition of the growth of renal cancer(CAKI-1) cell line; conditions: Homo sapiens
CAKI-1 [28] = experiment: Inhibition of the growth of renal cancer(CAKI-1) cell line at 0.01 uM; conditions: Homo sapiens
SF-295 [29] = experiment: inhibition of the growth of CNS cancer(SF-295) cell line; conditions: Homo sapiens
SF-268 [30] = experiment: inhibition of the growth of CNS cancer(SF-268) cell line; conditions: Homo sapiens
SR [31] = experiment: Inhibition of the growth of leukemia(SR) cell line at 0.01 uM; conditions: Homo sapiens
MOLT-4 = experiment: inhibition of the growth of leukemia (MOLT-4) cell line; conditions: Homo sapiens
SF-539 [32] = experiment: inhibition of the growth of CNS cancer(SF-539) cell line; conditions: Homo sapiens
SK-MEL-5 [33] = experiment: Inhibition of the growth of melanoma cancer (SK-MEL-5) cell line at 0.01 uM; conditions: Homo sapiens
HCT-116 [34] = experiment: inhibition of the growth of colon cancer(HCT116) cell line; conditions: Homo sapiens
786-0 [35] = experiment: Inhibition of the growth of renal cancer(786-0) cell line at 0.01 uM; conditions: Homo sapiens
NCI-H460 [36] = experiment: inhibition of the growth of non-small-cell lung cancer (NCI-H460) cell line; conditions: Homo sapiens
NCI-H522 [37] = experiment: inhibition of the growth of non-small-cell lung cancer (NCI-H522) cell line; conditions: Homo sapiens
MCF7 = experiment: inhibition of the growth of breast cancer (MCF-7) cell line; conditions: Homo sapiens
HCT-15 [38] = experiment: Inhibition of the growth of colon cancer(HCT-15) cell line at 0.01 uM; conditions: Homo sapiens
SR [39] = experiment: inhibition of the growth of leukemia(SR) cell line; conditions: Homo sapiens
NCI/ADR-RES [40] = experiment: Inhibition of the growth of breast cancer (MCF7/ADR-RES) cell line at 0.01 uM; conditions: Homo sapiens
A549 [41] = experiment: Inhibition of the growth of non-small-cell lung cancer (A549/ATCC) cell line at 0.01 uM; conditions: Homo sapiens
DU-145 [42] = experiment: Inhibition of the growth of prostate cancer(DU-145) cell line at 0.01 uM; conditions: Homo sapiens
NCI/ADR-RES [43] = experiment: inhibition of the growth of breast cancer (MCF7/ADR-RES) cell line; conditions: Homo sapiens
SF-539 [44] = experiment: Inhibition of the growth of CNS cancer(SF-539) cell line at 0.01 uM; conditions: Homo sapiens
OVCAR-8 [45] = experiment: Inhibition of the growth of ovarian cancer(OVCAR-8) cell line at 0.01 uM; conditions: Homo sapiens
MDA-MB-435 [46] = experiment: Inhibition of the growth of breast cancer (MDA-MB-435) cell line at 0.01 uM; conditions: Homo sapiens
[47] = biological target: T2, Bifunctional dihydrofolate reductase-thymidylate synthase (Toxoplasma gondii, UniProt Q07422); experiment: Inhibitory activity against dihydrofolate reductase(DHFR) from Toxoplasma gondii
T2 sequence (Q07422 whole entry): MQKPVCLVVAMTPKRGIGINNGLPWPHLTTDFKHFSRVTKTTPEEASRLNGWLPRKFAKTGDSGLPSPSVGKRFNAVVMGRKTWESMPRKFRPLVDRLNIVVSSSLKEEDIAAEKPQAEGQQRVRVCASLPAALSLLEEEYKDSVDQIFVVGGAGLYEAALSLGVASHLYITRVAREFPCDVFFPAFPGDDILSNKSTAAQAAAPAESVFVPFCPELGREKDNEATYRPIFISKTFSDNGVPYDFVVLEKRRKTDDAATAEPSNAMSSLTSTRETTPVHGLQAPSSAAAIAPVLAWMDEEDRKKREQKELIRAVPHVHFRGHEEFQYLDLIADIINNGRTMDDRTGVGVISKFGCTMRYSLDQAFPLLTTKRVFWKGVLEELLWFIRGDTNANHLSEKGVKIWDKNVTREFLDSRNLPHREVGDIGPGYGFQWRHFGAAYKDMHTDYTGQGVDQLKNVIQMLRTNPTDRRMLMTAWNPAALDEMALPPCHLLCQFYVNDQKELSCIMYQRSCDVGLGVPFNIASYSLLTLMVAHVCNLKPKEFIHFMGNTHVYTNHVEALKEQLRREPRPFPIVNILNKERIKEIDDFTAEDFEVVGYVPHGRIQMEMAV

NCI-H522 [48] = experiment: Inhibition of the growth of non-small-cell lung cancer (NCI-H522) cell line at 0.01 uM; conditions: Homo sapiens
IGROV-1 [49] = experiment: Inhibition of the growth of ovarian cancer(IGROVI) cell line at 0.01 uM; conditions: Homo sapiens

`CN(c1ccc2ccccc2c1)c1ccc2nc(N)nc(N)c2n1` gave a GI50 (KM12) of 10 nM, an inhibition at 0.01 µM (NCI-H460 [1]) of 79% and a GI50 (RPMI-8226 [2]) of under 10 nM. The inhibition at 0.01 µM (UO-31 [3]) was 54%, the GI50 (IGROV-1 [4]) was under 10 nM and the GI50 (786-0 [5]) was under 10 nM. The GI50 (SNB-19 [6]) was under 10 nM, the GI50 (HCT-15 [7]) was under 10 nM and the GI50 (MDA-N [8]) was under 10 nM. It also gave an inhibition at 0.01 µM (HCT-116 [9]) of 85%, a GI50 (MDA-MB-435 [10]) of under 10 nM and a GI50 (M14 [11]) of under 10 nM. For the same compound, the GI50 (NCI-H23 [12]) was under 10 nM, the GI50 (UO-31 [13]) was under 10 nM and the GI50 (NCI-H322M [14]) was under 10 nM. The GI50 (SK-MEL-5 [15]) was under 10 nM, the inhibition at 0.01 µM (M14 [16]) was 54% and the inhibition at 0.01 µM (SF-295 [17]) was 63%. The inhibition at 0.01 µM (SF-268 [18]) was 52%, the GI50 (A549 [19]) was under 10 nM and the GI50 (DU-145 [20]) was under 10 nM. The inhibition at 0.01 µM (SNB-19 [21]) was 62%, the inhibition at 0.01 µM (NCI-H23 [22]) was 63% and the IC50 (Dihydrofolate reductase) was 9.9 nM. For the same compound, the inhibition at 0.01 µM (MDA-N [23]) was 75%, the GI50 (OVCAR-8 [24]) was under 10 nM and the inhibition at 0.01 µM (RPMI-8226 [25]) was 66%. It also gave an inhibition at 0.01 µM (NCI-H322M [26]) of 56%, a GI50 (CAKI-1 [27]) of under 10 nM and an inhibition at 0.01 µM (CAKI-1 [28]) of 74%. For the same compound, the GI50 (SF-295 [29]) was under 10 nM, the GI50 (SF-268 [30]) was under 10 nM and the inhibition at 0.01 µM (SR [31]) was 57%. For the same compound, the GI50 (MOLT-4) was 20 nM, the GI50 (SF-539 [32]) was under 10 nM and the inhibition at 0.01 µM (SK-MEL-5 [33]) was 77%. The GI50 (HCT-116 [34]) was under 10 nM, the inhibition at 0.01 µM (786-0 [35]) was 54% and the GI50 (NCI-H460 [36]) was under 10 nM. It also gave a GI50 (NCI-H522 [37]) of under 10 nM, a GI50 (MCF7) of 30 nM and an inhibition at 0.01 µM (HCT-15 [38]) of 69%. The GI50 (SR [39]) was under 10 nM, the inhibition at 0.01 µM (NCI/ADR-RES [40]) was 100% and the inhibition at 0.01 µM (A549 [41]) was 65%. The inhibition at 0.01 µM (DU-145 [42]) was 51%, the GI50 (NCI/ADR-RES [43]) was under 10 nM and the inhibition at 0.01 µM (SF-539 [44]) was 66%. The inhibition at 0.01 µM (OVCAR-8 [45]) was 95%, the inhibition at 0.01 µM (MDA-MB-435 [46]) was 66% and the IC50 [47] was 14.5 nM. The inhibition at 0.01 µM (NCI-H522 [48]) was 60% and the inhibition at 0.01 µM (IGROV-1 [49]) was 65%.
